Results from article PMC3695085, “Screening and Improving the Recombinant Nitrilases and Application in Biotransformation of Iminodiacetonitrile to Iminodiacetic Acid” (PLoS ONE, 2013).

Columns and labels:
Assay type in all cases: biochemical
TpN = target: T1, TpN (Thalassiosira pseudonana, UniProt B8C1M9); assay: GC-FID of ADPN consumed; conditions: 50 mM ADPN, pH 7.5, 50 mM potassium phosphate, 35 °C, 30 min
T1 construct: gene NIT2; full-length, pET-28b(+), His-tag (Ni-NTA), E. coli BL21(DE3)

ApN = target: T2, ApN (Arthrobacter pascens, UniProt E1CJF8); assay: GC-FID of ADPN consumed; conditions: 50 mM ADPN, pH 7.5, 50 mM potassium phosphate, 35 °C, 30 min
T2 construct: gene inhB; full-length, pET-28b(+), His-tag (Ni-NTA), E. coli BL21(DE3)
T2 sequence (E1CJF8 1-359): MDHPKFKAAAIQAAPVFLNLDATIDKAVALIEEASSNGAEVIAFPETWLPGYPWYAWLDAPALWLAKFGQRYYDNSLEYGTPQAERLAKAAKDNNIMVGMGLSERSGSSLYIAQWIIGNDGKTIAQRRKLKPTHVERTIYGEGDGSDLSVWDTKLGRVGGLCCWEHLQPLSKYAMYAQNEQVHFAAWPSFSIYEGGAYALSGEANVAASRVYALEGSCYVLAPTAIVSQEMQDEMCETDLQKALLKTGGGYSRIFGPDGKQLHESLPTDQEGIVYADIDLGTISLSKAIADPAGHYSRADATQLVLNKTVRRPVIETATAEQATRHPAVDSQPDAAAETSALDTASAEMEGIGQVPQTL

RjN = target: T3, RjN (Rhodococcus rhodochrous, UniProt Q03217); assay: GC-FID of ADPN consumed; conditions: 50 mM ADPN, pH 7.5, 50 mM potassium phosphate, 35 °C, 30 min
T3 construct: gene nitA; full-length, pET-28b(+), His-tag (Ni-NTA), E. coli BL21(DE3)
T3 sequence (Q03217 1-366 limits assumed): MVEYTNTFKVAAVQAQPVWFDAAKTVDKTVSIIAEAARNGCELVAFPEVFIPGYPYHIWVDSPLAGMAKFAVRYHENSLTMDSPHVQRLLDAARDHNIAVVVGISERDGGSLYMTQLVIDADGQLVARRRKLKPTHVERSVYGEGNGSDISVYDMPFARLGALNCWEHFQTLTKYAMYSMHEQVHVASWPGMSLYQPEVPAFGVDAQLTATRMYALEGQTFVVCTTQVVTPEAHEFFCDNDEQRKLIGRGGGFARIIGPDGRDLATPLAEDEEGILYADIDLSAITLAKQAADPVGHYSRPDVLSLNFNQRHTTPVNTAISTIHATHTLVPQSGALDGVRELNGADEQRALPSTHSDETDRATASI

GpN = target: T4, GpN (Aeribacillus pallidus, UniProt Q0PIV8); assay: GC-FID of ADPN consumed; conditions: pH […] potassium phosphate, […] °C, […] min
T4 construct: full-length, pET-28b(+), His-tag (Ni-NTA), E. coli BL21(DE3)
T4 sequence (Q0PIV8 1-323): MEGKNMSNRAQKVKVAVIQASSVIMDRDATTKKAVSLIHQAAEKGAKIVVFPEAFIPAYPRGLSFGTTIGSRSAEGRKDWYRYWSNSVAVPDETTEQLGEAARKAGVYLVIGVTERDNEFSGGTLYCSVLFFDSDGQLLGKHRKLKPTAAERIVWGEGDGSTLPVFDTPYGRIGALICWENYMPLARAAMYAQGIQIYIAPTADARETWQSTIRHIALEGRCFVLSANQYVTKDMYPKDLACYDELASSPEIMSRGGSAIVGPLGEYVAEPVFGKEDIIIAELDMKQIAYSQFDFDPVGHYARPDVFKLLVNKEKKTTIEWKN

AcN = target: T5, AcN (Acidovorax facilis, UniProt Q1W2L4); assay: initial velocity, HPLC, Michaelis-Menten fit; conditions: pH 7.5, 50 mM potassium phosphate, 35 °C; unit printed as mM^−1 (mM meant); 10.5–262.5 mM substrate
T5 construct: gene nitA; full-length, pET-28b(+), His-tag (Ni-NTA), E. coli BL21(DE3); synthesised gene
Description: initial velocity, HPLC, Michaelis-Menten fit on AcN

| Compound | GC-FID of ADPN consumed (TpN) | GC-FID of ADPN consumed (ApN) | GC-FID of ADPN consumed (RjN) | GC-FID of ADPN consumed (GpN) | Km mM^-1 (AcN) |
| --- | --- | --- | --- | --- | --- |
| N#CCCCCC#N [adiponitrile] | All nitrilases demonstrated ADPN hydrolysis activity | All nitrilases demonstrated ADPN hydrolysis activity | All nitrilases demonstrated ADPN hydrolysis activity | All nitrilases demonstrated ADPN hydrolysis activity | – |
| N#CCNCC#N [iminodiacetonitrile] | – | – | – | – | 0.76 ± 0.02 mM⁻¹ |
